Measurements from patent US20230391714A1, “INHIBITORS OF THE INTERACTION BETWEEN TRIP8B AND HCN CHANNELS AND USES THEREOF FOR TREATING NEUROLOGICAL DISEASES AND DISORDERS” (Northwestern University, priority 2022, published 2023).
Where two headings read alike, the source gives them in different places.

Target: TRIP8b-HCN1c40 (Homo sapiens (Human), UniProt Q8IYB4)
Assay: TRIP8b-HCN1c40 AlphaScreen assay
Format: binding
Experimental: AlphaScreen Assay. 20 nM ofGST-tagged HCNlc40 protein (corresponding to the C terminal 40 amino acids of HCN1) was incubated with 200 nM of His-tagged TRIP8b(241-602) and varying concentrations of the test compound as described in our prior report (Han et al., 2015). After a 3 h incubation, anti-GST AlphaScreen acceptor beads were added for 1.5 h followed by AlphaScreen nickel chelate donor beads for 1.5 h. AlphaScreen signal was quantified using a PerkinElmer (Waltham, MA) EnSpire multimode plate reader.

[1] = read-out: TRIP8b-HCN1c40 Alphascreen IC50
[2] = activity ranges, read-out: TRIP8b-HCN1c40 Alphascreen IC50 activity

TRIP8b-HCN1c40, sequence (Q8IYB4 265-626): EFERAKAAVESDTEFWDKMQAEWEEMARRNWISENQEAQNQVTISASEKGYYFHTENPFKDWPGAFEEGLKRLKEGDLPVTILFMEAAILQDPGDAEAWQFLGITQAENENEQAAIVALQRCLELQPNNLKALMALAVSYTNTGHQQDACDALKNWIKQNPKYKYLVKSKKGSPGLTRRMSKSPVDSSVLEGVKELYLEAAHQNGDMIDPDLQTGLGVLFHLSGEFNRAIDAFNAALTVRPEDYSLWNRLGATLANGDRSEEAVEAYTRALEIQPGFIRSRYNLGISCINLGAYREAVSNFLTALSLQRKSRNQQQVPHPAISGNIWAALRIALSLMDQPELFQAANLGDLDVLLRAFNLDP

Structure (SMILES)	IC50 [1]	IC50 [2]
CCN(CC)C(=O)COc1ccc(-c2ccc(F)cc2)cc1CN1CCN(C)CC1 [NUCC-0201100]	150 µM	–
CN1CCN(Cc2cc(-c3ccc(F)cc3)ccc2OCC(=O)NC2CC2)CC1 [NUCC-0201101]	110 µM	–
CN1CCN(Cc2cc(-c3ccc(F)cc3)ccc2OCC(=O)N(C)Cc2ccccc2)CC1 [NUCC-0201102]	91 µM	–
CN1CCN(Cc2cc(-c3ccc(F)cc3)ccc2OCC(=O)NCc2ccc(C(F)(F)F)cc2)CC1 [NUCC-0201103]	15 µM	10 to 20 µM
COc1ncc(-c2ccc(OCC(=O)NCc3ccc(Cl)cc3)c(CN3CCN(C)CC3)c2)c(OC)n1 [NUCC-0201189]	92 µM	–
O=Cc1cc(-c2ccc(F)cc2)ccc1O [NUCC-0201191]	58 µM	–
CN1CCN(Cc2cc(OC(F)(F)F)ccc2OCC(=O)NCc2ccc(Cl)cc2)CC1 [NUCC-0201228]	160 µM	–
CN1CCN(Cc2cc(Oc3ccc(F)cc3)ccc2OCC(=O)NCc2ccc(Cl)cc2)CC1 [NUCC-0201229]	7.1 µM	5 to 10 µM
CN1CCN(Cc2cc(-c3ccc(F)cc3)ccc2OCC(=O)NCCN2CCCCC2)CC1 [NUCC-0201230]	> 200 µM	–
Cc1ccc(-c2ccc(OCC(=O)NCc3ccc(S(N)(=O)=O)cc3)c(CN3CCCN(C)CC3)c2)cc1 [NUCC-0201597]	> 40 µM	–
Cc1ccc(-c2ccc(OCC(=O)NCc3ccccc3)c(CN3CCCN(C)CC3)c2)cc1 [NUCC-0201598]	20 µM	10 to 20 µM
COc1ccc(CNC(=O)COc2ccc(-c3ccc(C)cc3)cc2CN2CCCN(C)CC2)c(OC)c1 [NUCC-0201599]	15 µM	10 to 20 µM
Cc1ccc(-c2ccc(OCC(=O)Nc3ccc4c(c3)OCO4)c(CN3CCCN(C)CC3)c2)cc1 [NUCC-0201600]	9.2 µM	5 to 10 µM
Cc1ccc(-c2ccc(OCC(=O)NCc3ccc(Cl)cc3)c(CN3CCOCC3)c2)cc1 [NUCC-0201604]	8.1 µM	5 to 10 µM
CCN(CCO)Cc1cc(-c2ccc(C)cc2)ccc1OCC(=O)NCc1ccc(O)cc1 [NUCC-0201605]	35 µM	–
Cc1ccc(-c2ccc(OCC(=O)N[C@H](C)c3ccccc3)c(CN3CCOCC3)c2)cc1 [NUCC-0201606]	28 µM	20 to 40 µM
Cc1ccc(-c2ccc(OCC(=O)Nc3ccc(Cl)cc3)c(CN3CCC(N(C)C)CC3)c2)cc1 [NUCC-0201608]	7 µM	5 to 10 µM

Structure (SMILES)	IC50 [1]	IC50 [2]
Cc1ccc(-c2ccc(OCC(=O)NCc3ccc(F)cc3)c(CN3CCC(N(C)C)CC3)c2)cc1 [NUCC-0201609]	16 µM	10 to 20 µM
COc1ccc([C@H](C)NC(=O)COc2ccc(-c3ccc(C)cc3)cc2CN2CCC(N(C)C)CC2)cc1 [NUCC-0201611]	> 40 µM	–
Cc1ccc(-c2ccc(OCC(=O)NCc3cnc[nH]3)c(CN3CCC(N(C)C)CC3)c2)cc1 [NUCC-0201612]	> 40 µM	–
Cc1ccc(-c2ccc(OCC(=O)NCc3ccc(Cl)cc3)c(CN3CCNCC3)c2)cc1 [NUCC-0201614]	7.2 µM	5 to 10 µM
CC(C)(C)c1ccc(-c2ccc(OCC(=O)NCc3ccc(Cl)cc3)c(CN3CCNCC3)c2)cc1 [NUCC-0201615]	6.3 µM	5 to 10 µM
Cc1ccccc1-c1ccc(OCC(=O)NCc2ccc(Cl)cc2)c(CN2CCNCC2)c1 [NUCC-0201617]	7.8 µM	5 to 10 µM
Cc1ccc(NC(=O)COc2ccc(-c3cccc(C)c3)cc2CN2CC[C@H](N)C2)cc1 [NUCC-0201618]	8.8 µM	5 to 10 µM
COc1ccc(NC(=O)COc2ccc(-c3cccc(C)c3)cc2CN2CC[C@H](N)C2)cn1 [NUCC-0201619]	24 µM	20 to 40 µM
COc1cc(NC(=O)COc2ccc(-c3cccc(C)c3)cc2CN2CC[C@H](N)C2)cc(OC)c1OC [NUCC-0201620]	13 µM	10 to 20 µM
Cc1cccc(-c2ccc(OCC(=O)Nc3cccc(S(C)(=O)=O)c3)c(CN3CC[C@H](N)C3)c2)c1 [NUCC-0201622]	19 µM	10 to 20 µM
CNC(=O)c1ccc(NC(=O)COc2ccc(-c3cccc(C)c3)cc2CN2CC[C@H](N)C2)cc1 [NUCC-0201623]	22 µM	20 to 40 µM
Cc1cccc(-c2ccc(OCC(=O)Nc3ccc(O)cc3)c(CN3CC[C@H](N)C3)c2)c1 [NUCC-0201624]	20 µM	10 to 20 µM
Cc1cccc(-c2ccc(OCC(=O)NCc3ccc(Cl)cc3)c(CN3CC[C@H](N)C3)c2)c1 [NUCC-0201625]	6.1 µM	5 to 10 µM
Cc1cccc(-c2ccc(OCC(=O)NCc3cccnc3)c(CN3CC[C@H](N)C3)c2)c1 [NUCC-0201626]	> 40 µM	–
Cc1cccc(-c2ccc(OCC(=O)Nc3cc(O)c(O)c(O)c3)c(CN3CC[C@H](N)C3)c2)c1 [NUCC-0201628]	7.8 µM	5 to 10 µM
CN1CCN(Cc2cc(-c3ccc(CCl)cc3)ccc2OCC(=O)NCc2ccc(Cl)c(Cl)c2)CC1 [NUCC-0201971]	6.6 µM	5 to 10 µM

The next molecules have a lower IC50 [1] than those just listed; values first:

IC50 [1]	IC50 [2]	Structure (SMILES)
5.5 µM	5 to 10 µM	Cc1ccc(-c2ccc(OCC(=O)NCc3ccc(Cl)cc3)c(CN3CCC(N(C)C)CC3)c2)cc1 [NUCC-0201607]
5 µM	2 to 5 µM	Cc1ccc(-c2ccc(OCC(=O)NCc3cccc(Cl)c3)c(CN3CCC(N(C)C)CC3)c2)cc1 [NUCC-0201610]
5.7 µM	5 to 10 µM	CC(C)c1ccc(-c2ccc(OCC(=O)NCc3ccc(Cl)cc3)c(CN3CCNCC3)c2)cc1 [NUCC-0201616]
1.3 µM	1 to 2 µM	Cc1cccc(-c2ccc(OCC(=O)Nc3ccc(Cl)c(Cl)c3)c(CN3CC[C@H](N)C3)c2)c1 [NUCC-0201621]
3.1 µM	2 to 5 µM	Cc1cc(C)c(-c2ccc(OCC(=O)NCc3ccc(Cl)cc3)c(CN3CCNCC3)c2)c(C)c1 [NUCC-0201629]
< 0.74 µM	–	CN1CCN(Cc2cc(-c3ccc(Cl)c(Cl)c3)ccc2OCC(=O)NCc2ccc(Cl)cc2)CC1 [NUCC-0201708]
2.8 µM	2 to 5 µM	CN1CCN(Cc2cc(-c3ccc(F)c(C(F)(F)F)c3)ccc2OCC(=O)NCc2ccc(Cl)cc2)CC1 [NUCC-0201709]
2.9 µM	2 to 5 µM	CSc1ccc(-c2ccc(OCC(=O)NCc3ccc(Cl)cc3)c(CN3CCN(C)CC3)c2)cc1 [NUCC-0201710]
3.9 µM	2 to 5 µM	CN1CCN(Cc2cc(-c3ccc(C(F)(F)F)cc3)ccc2OCC(=O)NCc2ccc(Cl)cc2)CC1 [NUCC-0201711]
3 µM	2 to 5 µM	CN1CCN(Cc2cc(-c3ccc(Cl)cc3)ccc2OCC(=O)NCc2ccc(Cl)cc2)CC1 [NUCC-0201712]
4.7 µM	2 to 5 µM	C=Cc1ccc(-c2ccc(OCC(=O)NCc3ccc(Cl)cc3)c(CN3CCN(C)CC3)c2)cc1 [NUCC-0201713]
1.1 µM	1 to 2 µM	CN1CCN(Cc2cc(-c3c(Cl)cc(Cl)cc3Cl)ccc2OCC(=O)NCc2ccc(Cl)c(Cl)c2)CC1 [NUCC-0201969]
< 0.74 µM	–	CN1CCN(Cc2cc(-c3c(Cl)cc(Cl)cc3Cl)ccc2OCC(=O)NCc2ccc(Cl)cc2)CC1 [NUCC-0201970]
5 µM	–	CN1CCN(Cc2cc(-c3ccc(Cl)cc3)ccc2OCC(=O)NCc2ccc(Cl)cc2)CC1 [NUCC-0201972]
1.3 µM	1 to 2 µM	CN1CCN(Cc2cc(-c3ccc(Cl)c(Cl)c3)ccc2OCC(=O)NCc2ccc(Cl)cc2)CC1 [NUCC-0201973]
1.8 µM	1 to 2 µM	CN1CCN(Cc2cc(-c3ccc(Cl)cc3)ccc2OCCNS(=O)(=O)c2ccc(Cl)cc2)CC1 [NUCC-0201974]
1.7 µM	1 to 2 µM	CN1CCN(Cc2cc(-c3ccc(Cl)c(Cl)c3)ccc2OCCNS(=O)(=O)c2ccc(Cl)cc2)CC1 [NUCC-0201975]
0.83 µM	< 1 µM	CN1CCN(Cc2cc(-c3ccc(Cl)c(Cl)c3)ccc2OCCNCc2ccc(Cl)cc2)CC1 [NUCC-0201976]
0.87 µM	< 1 µM	CN1CCN(Cc2cc(-c3ccc(Cl)cc3)ccc2OCC(=O)NCc2ccc(Cl)c(Cl)c2)CC1 [NUCC-0201977]
< 0.74 µM	< 1 µM	CN1CCN(Cc2cc(-c3ccc(Cl)cc3Cl)ccc2OCC(=O)NCc2ccc(Cl)c(Cl)c2)CC1 [NUCC-0201978]
< 0.74 µM	< 1 µM	CN1CCN(Cc2cc(-c3cc(Cl)cc(Cl)c3)ccc2OCC(=O)NCc2ccc(Cl)c(Cl)c2)CC1 [NUCC-0201979]
1.2 µM	1 to 2 µM	CN1CCN(Cc2cc(-c3ccc(Cl)c(Cl)c3)ccc2OCC(=O)N2CCc3ccccc32)CC1 [NUCC-0201980]
< 0.74 µM	< 1 µM	CN1CCN(Cc2cc(-c3ccc(Cl)c(Cl)c3)ccc2OCC(=O)N2CCc3cc(Cl)ccc32)CC1 [NUCC-0201981]
2.5 µM	2 to 5 µM	CN1CCN(Cc2cc(-c3ccc(Cl)c(Cl)c3)ccc2OCC(=O)NCc2ccc(C(F)(F)F)cc2)CC1 [NUCC-0201982]
0.91 µM	< 1 µM	CN1CCN(Cc2cc(-c3ccc(Cl)c(Cl)c3)ccc2OCC(=O)NCc2ccccc2Cl)CC1 [NUCC-0201983]
5.3 µM	–	CN1CCN(Cc2cc(-c3ccc(Cl)c(Cl)c3)ccc2OCC(=O)NCc2ccc(C#N)cc2)CC1 [NUCC-0201984]
2.5 µM	2 to 5 µM	CN1CCN(Cc2cc(-c3ccc(Cl)c(Cl)c3)ccc2OCC(=O)NCc2ccc([N+](=O)[O-])cc2)CC1 [NUCC-0201985]
1.1 µM	1 to 2 µM	CN1CCN(Cc2cc(-c3ccc(Cl)c(Cl)c3)ccc2OCC(=O)NCc2cccc(Cl)c2)CC1 [NUCC-0201986]
2.5 µM	2 to 5 µM	CN1CCN(Cc2cc(-c3ccc(Cl)c(Cl)c3)ccc2OCC(=O)NCc2ccccc2)CC1 [NUCC-0201987]
1.4 µM	1 to 2 µM	CN1CCN(Cc2cc(-c3ccc(Cl)c(Cl)c3)ccc2OCC(=O)NC2CCc3ccccc32)CC1 (centres unmarked) [NUCC-0201988]
